# Like-named read-outs stand apart in the source and are kept apart here.
# Experiments:
# [1] = test system: citrus red mites (Panonychus citri McGregor) immunized from Dimethoate; assay: whole plant or invertebrate; details: foliar, 24 h, read-out: Mortality (%), Concentration 250 ppm
# [2] = test system: Culex pipiens pallens immunized against organophosphoric preparations, last larval state; assay: Test Example 9 (W.H.O. method): mosquito larvae test; format: in vivo; details: read-out: Effect of compound used singly, LD50 (Table 16)
# Protocol: (1) An ethyl alcohol solution of each test compound was diluted with water to varying concentrations in the range of from 0.01 to 1.0 ppm.
# (2) A 200-ml portion of each solution of a different concentration was placed in a 300-ml beaker. Then 30 test insects were plunged into the solution and then removed.
# (3) The insects removed from the solution were kept in a greenhouse at a constant temperature of 25±1° C. for 24 hours. At the end of 24 hours of standing, a count was taken of the number of insects that had died by that time.
# The test described above was repeated twice or thrice.
# [3] = test system: resistant green rice leafhoppers (R)
# Procedure, shortened: (§1)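 Test compounds were diluted in acetone and applied topically to the thorax of female green rice leafhoppers at 0.2 μl per head. Insects were then held in cups with […] at 26±1 °C, and mortality was counted after 24 h. LD50 for mixtures is expressed as total dosage.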
# [4] = test system: green rice leafhoppers of the strain RN; assay: Test Example 3: dust spray test (20 mesh metal gauze cylinder); format: in vivo, Nephotettix cincticeps; details: for mortality at 100 mg/cylinder / mortality at 250 mg/cylinder: 24 hr
# [5] = molecular target: cholinesterase (ChE), susceptible strain; assay: Inhibition of cholinesterase (acetylthiocholine method), susceptible strain enzyme; format: biochemical, green rice leafhopper, Nephotettix cincticeps; details: 50% inhibition concentration, 30° C. 30 min with inhibitor, read-out: Inhibition of Cholinesterase I50 (M) S
# Protocol: The activity of ChE was performed by the acethyethiocholine method [Ellman (1961), Biochemical Pharmacology 7: 88-95].
# […]. After centrifuged (30,000 g, 10 min.), the supernatant was used as the source of ChE.
# (§2) (2) Inhibition: 1.0 ml of enzyme solution was incubated with 0.1 ml of inhibitor which diluted with acetone at 30° C. for 30 min. ((2) solution).
# (3) Determination of ChE activity: 1.0 ml of acetylthiochline (3.5/2×10^-2 M), 1.0 ml of DTNB (5,5'-dithiobis-2-nitrobenzoic acid, 2.5×10^-4 M) and 4.0 ml of phosphate buffer (1/15 M, pH 7.4) were added to the (2) solution and incubated at 30° C. for 10 min. After incubation, […] of eserine (2×10^-3 M) was added in order to stop the enzyme reaction and the optical density of the yellow solution was measured at 412 mμ on the spectrophotometer.
# [6] = test system: sensitive green rice leafhoppers (S); details: susceptible strain, topical
# Procedure, shortened: as §1
# [7] = test system: cholinesterase (ChE), resistant strain; format: biochemical, green rice leafhopper, Nephotettix cincticeps; details: for Inhibition of Cholinesterase R/S (resistant ratio): ratio of the resistant strain to the susceptible strain (I50), 30 min; for IC50: resistant strain, 50% inhibition concentration, 30° C. 30 min with inhibitor, read-out: Inhibition of Cholinesterase I50 (M) R
# Protocol: After centrifuged (30,000 g, 10 min.), the supernatant was used as the source of ChE.
# as §2
# (3) Determination of ChE activity: 1.0 ml of acetylthiochline (3.5/2×10^-2 M), 1.0 ml of DTNB (5,5'-dithiobis-2-nitrobenzoic acid, 2.5×10^-4 M) and 4.0 ml of phosphate buffer (1/15 M, pH 7.4) were added to the (2) solution and incubated at 30° C. for 10 min.
# [8] = in vivo; details: mouse, po
# Protocol: Different amounts of the suspension were injected into the stomaches of test mice with a metal tube. For the test, male mice of the species ddY were used.
# [9] = test system: resistant green rice leafhoppers of RN-strain; details: green rice leafhopper, in vivo, topical or ocular
# [10] = ratio of the resistant strain to the susceptible strain (LD50), 1440 min
# [11] = resistant Culex pipiens pallens larvae, compound alone, 24 hours
smiles,measurement,setting,value
"CCCNC(=O)Oc1cccc(C)c1 [Compound 26, 3-methylphenyl-N-n-propylcarbamate]",mortality at 250 ppm,[1],85%
same,LC50,"[2]; Culex pipiens, 24 h",> 1 µg/mL
same,Insecticidal Activity R/S (resistant ratio),[3]; [10],0.6
same,mortality at 100 mg/cylinder,"[4]; 2% dust, 100 mg, read-out: Mortality (%) after 24 hr., 100 mg Spray (Table 7)",70%
same,mortality at 250 mg/cylinder,"[4]; 2% dust, 250 mg, read-out: Mortality (%) after 24 hr., 250 mg Spray (Table 7)",100%
same,mortality at 100 mg/cylinder,"[4]; Table 8, dust 100 mg, read-out: Mortality (%) after 24 hr., Spray Volume 100 mg",70%
same,mortality at 250 mg/cylinder,"[4]; Table 8, dust 250 mg, read-out: Mortality (%) after 24 hr., Spray Volume 250 mg",100%
"CNC(=O)Oc1cccc(C(C)(C)C)c1 [Compound 32, 3-tert-butylphenyl-N-methylcarbamate, reference compound]",IC50,[5],7.2e-07 M
same,Insecticidal Activity (after 24 hrs.) LD50 (μg/g) S,[6],1.6 µg/g
same,Insecticidal Activity R/S (resistant ratio),[3]; [10],31.3
same,Insecticidal Activity (after 24 hrs.) LD50 (μg/g) R,"[3]; resistant strain, topical, 24 hrs",50.0 µg/g
same,Inhibition of Cholinesterase R/S (resistant ratio),[7],16.6
same,IC50,[7],1.2e-05 M
"CCCC(C)c1cccc(OC(=O)NC)c1 (stereo not drawn) [Compound 19, 3-sec-amylphenyl-N-methylcarbamate, reference compound]",LD50 at 168 h,[8],54 mg/kg
same,Insecticidal Activity R/S (resistant ratio),"[3]; green rice leafhopper, in vivo, topical_or_ocular, 1440 min",9.3
"CCc1ccc(OC(=O)NC)cc1CC [Compound 50, reference compound]",mortality at 250 ppm,[1],70%
same,IC50,[5],1.1e-06 M
same,Inhibition of Cholinesterase R/S (resistant ratio),[7],46.4
same,IC50,[7],5.1e-05 M
"CNC(=O)Oc1ccccc1C(C)C [Compound 1, 2-isopropylphenyl-N-methylcarbamate, reference compound]",LD50 at 168 h,[8],210 mg/kg
same,Insecticidal Activity R/S (resistant ratio),[3]; [10],23.0
same,"LD50 (μg/g) (Table 6), single compound","[3]; resistant strain (R), compound alone, 1440 min",82.2 µg/g
same,"Effect of individual compound (RN), death ratio (%) (Table 9)","[4]; dust, compound alone, RN strain",0%
"CCOP(=S)(OCC)Oc1cc(C)nc(C(C)C)n1 [Diazinone, diethyl 2-isopropyl-6-methyl-4-pyrimidinyl phosphorothionate]",LC50,"[2]; Culex pipiens, 24 h",0.31 µg/mL
same,LD50 (μg/g) (Table 13),[9],62.3 µg/g
same,LD50 (μg/g) (Table 14),[9],62.2 µg/g
"CCOC(=O)C(SP(=S)(OC)OC)c1ccccc1 (stereo not drawn) [PAP, S-[α-(ethoxycarbonyl)benzyl]dimethyl phosphorothiolothionate]",LC50,[2]; [11],0.16 µg/mL
same,LD50 (μg/g) (Table 13),[9],804.3 µg/g
"CCCNC(=O)Oc1ccccc1C(C)C [Compound 3, 2-isopropylphenyl-N-n-propylcarbamate]",LD50 at 168 h,[8],1130 mg/kg
same,LC50,"[2]; Culex pipiens, 24 h",> 1 µg/mL
same,Insecticidal Activity R/S (resistant ratio),[3]; [10],1.3
"CC(C)OP(=O)(OC(C)C)SCc1ccccc1 [IBP, S-benzyl diisopropyl phosphorothiolate]",LD50 (μg/g) (Table 14),[9],"> 1,000 μg/g"
"CCCNC(=O)Oc1ccc(CC)c(CC)c1 [Compound 51, 3,4-diethylphenyl-N-n-propylcarbamate]",mortality at 250 ppm,[1],80%
"COP(=S)(OC)Oc1ccc([N+](=O)[O-])c(C)c1 [MEP, dimethyl 4-nitro-m-tolyl phosphorothionate]",LC50,[2]; [11],0.18 µg/mL
same,LD50 (μg/g) (Table 13),[9],"> 4,000 μg/g"
"CCCNC(=O)Oc1cccc(C(C)CCC)c1 (stereo not drawn) [Compound 21, 3-sec-amylphenyl-N-n-propylcarbamate]",LD50 at 168 h,[8],300 mg/kg
same,Insecticidal Activity R/S (resistant ratio),[3]; [10],2.9
"COP(=S)(OC)Oc1ccc(SC)c(C)c1 [MPP, dimethyl 4-methylthio-m-tolyl phosphorothionate]",LC50,[2]; [11],0.1 µg/mL
same,LD50 (μg/g) (Table 13),[9],"> 1,000 μg/g"
"CCCNC(=O)Oc1cccc(C(C)CC)c1 (stereo not drawn) [Compound 17, 3-sec-butylphenyl-N-n-propylcarbamate]",LD50 at 168 h,[8],30 to 300 mg/kg
same,mortality,[8]; 30 mg/kg,0%
same,mortality,[8]; 300 mg/kg,100%
same,Insecticidal Activity R/S (resistant ratio),[3]; [10],1.2
"CCC(C)c1cccc(OC(=O)NC)c1 (stereo not drawn) [Compound 15, 3-sec-butylphenyl-N-methylcarbamate, reference compound]",LD50 at 168 h,[8],87 mg/kg
same,Insecticidal Activity R/S (resistant ratio),[3]; [10],19.0
